From PubChem BioAssay AID330 (DTP/NCI, 2004) come the findings set out here.

Molecules are shown by their SMILES. Where “and” joins values, the source holds several entries; their conditions need not be identical. Equal values may be shown once. Toxic doses and inconclusive results are not listed.

The test deals with P388 leukemia ip, CD2F1 mice, survival T/C. Description: NCI In Vivo Anticancer Drug Screen. Data for tumor model P388 Leukemia (intraperitoneal) in CD2F1 (CDF1) mice. The conditions noted are these: endpoint: median survival time, higher = longer survival. An outline of the steps: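 Mice carrying the transplanted tumor received test compound or vehicle. Survival was recorded in each group, and the value is the treated-group measurement divided by that of the vehicle-treated control group.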

Setting [1] is: dose: 25.0 mg/kg/injection, schedule: Q04DX003 (ip), vehicle: saline with Tween-80.
The mark [2] stands for this setting: dose: 60.0 mg/kg/injection, schedule: Q01DX005 (ip), vehicle: saline with Tween-80.
Where [3] appears, read: dose: 120.0 mg/kg/injection, schedule: Q01DX005 (ip), vehicle: saline with Tween-80.
Setting [4] is: dose: 240.0 mg/kg/injection, schedule: Q01DX005 (ip), vehicle: saline with Tween-80.

On to `COC(=O)Cc1nc2c(=O)[nH]c(N)nc2[nH]c1=O`, for which the T/C was 95 % of control (dose: 12.5 mg/kg/injection, schedule: Q01DX005 (ip), vehicle: Klucel (hydroxypropylcellulose) (HPC)); 96 % of control (dose: 25.0 mg/kg/injection, schedule: Q01DX005 (ip), vehicle: Klucel (hydroxypropylcellulose) (HPC)); 102 % of control and 104 % of control (dose: 50.0 mg/kg/injection, schedule: Q01DX005 (ip), vehicle: Klucel (hydroxypropylcellulose) (HPC)).
With `CCC(=O)c1c(C)oc2ccc(O)cc12`, the T/C by setting is: (dose: 25.0 mg/kg/injection, schedule: Q04DX002 (ip), vehicle: Klucel (hydroxypropylcellulose) (HPC)) 94 % of control; (dose: 50.0 mg/kg/injection, schedule: Q04DX002 (ip), vehicle: Klucel (hydroxypropylcellulose) (HPC)) 89 % of control; (dose: 100.0 mg/kg/injection, schedule: Q04DX002 (ip), vehicle: Klucel (hydroxypropylcellulose) (HPC)) 91 % of control; (dose: 200.0 mg/kg/injection, schedule: Q04DX002 (ip), vehicle: Klucel (hydroxypropylcellulose) (HPC)) 90 % of control; (dose: 400.0 mg/kg/injection, schedule: Q04DX002 (ip), vehicle: Klucel (hydroxypropylcellulose) (HPC)) 90 % of control.
For `O=C1Nc2ccccc2C(=O)C1(O)c1ccccc1` (centres undefined), the T/C is 105 % of control (dose: 60.0 mg/kg/injection, schedule: Q01DX005 (ip), vehicle: Klucel (hydroxypropylcellulose) (HPC)); 103 % of control (dose: 120.0 mg/kg/injection, schedule: Q01DX005 (ip), vehicle: Klucel (hydroxypropylcellulose) (HPC)); 94 % of control (dose: 240.0 mg/kg/injection, schedule: Q01DX005 (ip), vehicle: Klucel (hydroxypropylcellulose) (HPC)).
Take `Cc1cnc(Cl)nc1Sc1nc(N)nc2nc[nH]c12`: the T/C by setting is: (dose: 4.0 mg/kg/injection, schedule: Q01DX009 (ip), vehicle: saline with Tween-80) 150 % of control; (dose: 12.5 mg/kg/injection, schedule: Q01DX009 (ip), vehicle: saline with Tween-80) 122 % of control; under setting [1], 154 % of control; (dose: 50.0 mg/kg/injection, schedule: Q04DX003 (ip), vehicle: saline with Tween-80) 159 % of control; (dose: 100.0 mg/kg/injection, schedule: Q04DX003 (ip), vehicle: saline with Tween-80) 100 % of control.
With `CC1(C)OC(C(F)(F)F)(C(F)(F)F)c2cc(C(C)(C)C)cc(C(O)(C(F)(F)F)C(F)(F)F)c2S1`, the T/C is 120 % of control (dose: 30.0 mg/kg/injection, schedule: Q01DX005 (ip), vehicle: saline with Tween-80); 106 % of control (dose: 50.0 mg/kg/injection, schedule: Q01DX005 (ip), vehicle: saline with Tween-80); 113 % of control under setting [2]; 120 % of control (dose: 100.0 mg/kg/injection, schedule: Q01DX005 (ip), vehicle: saline with Tween-80); 112 % of control under setting [3]; 115 % of control (dose: 200.0 mg/kg/injection, schedule: Q01DX005 (ip), vehicle: saline with Tween-80).
Take `CC(=O)[C@H]1CC[C@H]2[C@@H]3CCC4=CC(=O)C=C[C@]4(C)[C@H]3C(=O)C[C@]12C`: the T/C reads like this: (dose: 100.0 mg/kg/injection, schedule: Q01DX009 (ip), vehicle: saline with Tween-80) 100 % of control; (dose: 200.0 mg/kg/injection, schedule: Q01DX009 (ip), vehicle: saline with Tween-80) 100 % of control; (dose: 400.0 mg/kg/injection, schedule: Q01DX009 (ip), vehicle: saline with Tween-80) 100 % of control.
`CCN1C(=O)CC(NC2CC(OC3C[C@](O)(C(C)=O)Cc4c(O)c5c(c(O)c43)C(=O)c3c(OC)cccc3C5=O)OC(C)C2O)C1=O` (some centres undefined): the T/C was 115 % of control (dose: 6.25 mg/kg/injection, schedule: Q04DX003 (ip), vehicle: water); 103 % of control (dose: 12.5 mg/kg/injection, schedule: Q04DX003 (ip), vehicle: water); 105 % of control (dose: 25.0 mg/kg/injection, schedule: Q04DX003 (ip), vehicle: water); 105 % of control (dose: 50.0 mg/kg/injection, schedule: Q04DX003 (ip), vehicle: water).
Regarding `CC[n+]1c(C)sc2ccccc21`, the T/C was 91 % of control (dose: 25.0 mg/kg/injection, schedule: Q01DX005 (ip), vehicle: saline) and 94 % of control (dose: 50.0 mg/kg/injection, schedule: Q01DX005 (ip), vehicle: saline).
In the case of `COC(=O)C12Oc3ccc(-c4ccc5c(c4O)C(O)=C4C(=O)CC(C)C(O)C4(C(=O)OC)O5)c(O)c3C(O)=C1C(=O)CC(C)C2O` (centres undefined), the T/C runs as follows: (dose: 0.39 mg/kg/injection, schedule: Q01DX009 (ip), vehicle: saline with Tween-80) 100 % of control; (dose: 0.78 mg/kg/injection, schedule: Q01DX009 (ip), vehicle: saline with Tween-80) 104 % of control; (dose: 1.56 mg/kg/injection, schedule: Q01DX009 (ip), vehicle: saline with Tween-80) 106 % of control; (dose: 2.5 mg/kg/injection, schedule: Q01DX009 (ip), vehicle: saline with Tween-80) 96 % of control; (dose: 3.13 mg/kg/injection, schedule: Q01DX009 (ip), vehicle: saline with Tween-80) 112 % of control; (dose: 5.0 mg/kg/injection, schedule: Q01DX009 (ip), vehicle: saline with Tween-80) 100 % of control. Moreover, the T/C (dose: 6.25 mg/kg/injection, schedule: Q04DX003 (ip), vehicle: saline with Tween-80) is 104 % of control; the T/C (dose: 8.33 mg/kg/injection, schedule: Q04DX003 (ip), vehicle: saline with Tween-80) was 104 % of control; the T/C (dose: 10.0 mg/kg/injection, schedule: Q01DX009 (ip), vehicle: saline with Tween-80) was 105 % of control; the T/C (dose: 12.5 mg/kg/injection, schedule: Q04DX003 (ip), vehicle: saline with Tween-80) was 109 % of control; the T/C (dose: 18.7 mg/kg/injection, schedule: Q04DX003 (ip), vehicle: saline with Tween-80) is 113 % of control; the T/C under setting [1] is 118 % of control.
Regarding `N#Cc1ccc(NC(=O)Nc2ccc([N+](=O)[O-])cc2Cl)cc1`, the T/C by setting is: under setting [2], 93 % of control; under setting [3], 86 % of control; under setting [4], 89 % of control and 92 % of control.
In the case of `CC(=O)OCCC/C(=C\c1c2ccccc2cc2ccccc12)[N+](=O)[O-]`, the T/C by setting is: (dose: 60.0 mg/kg/injection, schedule: Q01DX005 (ip), vehicle: suspension in saline) 100 % of control; (dose: 120.0 mg/kg/injection, schedule: Q01DX005 (ip), vehicle: suspension in saline) 102 % of control; (dose: 240.0 mg/kg/injection, schedule: Q01DX005 (ip), vehicle: suspension in saline) 97 % of control.
In the case of `CCOC(=O)c1cnc2cc(C(F)(F)F)ccc2c1N=[N+]=[N-]`, the T/C runs as follows: under setting [2], 99 % of control; under setting [3], 96 % of control; under setting [4], 96 % of control.
On to `[Br][Pt].[NH-]CC[N-]CC[NH-]`, for which the T/C is 102 % of control (dose: 1.56 mg/kg/injection, schedule: Q01DX009 (ip), vehicle: saline); 100 % of control (dose: 3.13 mg/kg/injection, schedule: Q01DX009 (ip), vehicle: saline); 100 % of control (dose: 6.25 mg/kg/injection, schedule: Q01DX009 (ip), vehicle: saline); 97 % of control (dose: 12.5 mg/kg/injection, schedule: Q01DX009 (ip), vehicle: saline); 97 % of control (dose: 25.0 mg/kg/injection, schedule: Q01DX009 (ip), vehicle: saline).
With `C=Cc1cncc2c1CCOC2=O`, the T/C is 86 % of control (dose: 3.75 mg/kg/injection, schedule: Q01DX005 (ip), vehicle: Klucel (hydroxypropylcellulose) (HPC)); 93 % of control (dose: 7.5 mg/kg/injection, schedule: Q01DX005 (ip), vehicle: Klucel (hydroxypropylcellulose) (HPC)); 86 % of control (dose: 30.0 mg/kg/injection, schedule: Q01DX005 (ip), vehicle: Klucel (hydroxypropylcellulose) (HPC)).
`CCN(CC)Cc1c(C)[nH]c2cc(Cl)ccc2c1=O`: the T/C (dose: 100.0 mg/kg/injection, schedule: Q01DX001 (ip), vehicle: saline with Tween-80) was 88 % of control.
For the compound `CC/C(=N/N(C)C)C(=O)OC`, the T/C (dose: 100.0 mg/kg/injection, schedule: Q04DX002 (ip), vehicle: saline) is 95 % of control; the T/C (dose: 200.0 mg/kg/injection, schedule: Q04DX002 (ip), vehicle: saline) was 100 % of control; the T/C (dose: 400.0 mg/kg/injection, schedule: Q04DX002 (ip), vehicle: saline) is 98 % of control.
For the compound `C1CC2CCC(N3CCCC3)C(C1)C21OCCO1` (centres undefined), the T/C under setting [2] was 93 % of control and the T/C under setting [3] is 92 % of control.
Regarding `O=C(CC1(O)C(=O)Nc2ccccc21)c1cccc2ccccc12` (centres undefined), the T/C runs as follows: under setting [2], 110 % of control; under setting [3], 113 % of control; under setting [4], 103 % of control.
